This experiment has as its system parasites (ring stage parasites, parasite growth). As to the kind of experiment: Parasite LDH growth assay (Parasite Assay), antiparasite potency. The class given is cell-based. Conditions: 72 hours growth, LDH readout. Summed up: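 Ring-stage culture was adjusted to 0.7% parasitemia and 2% haematocrit in bicarbonate-buffered RPMI-Hepes with heat-inactivated human serum and 0.5% albumax, then added to compound. Plates were incubated 72 h at 37 °C in gassed humidified boxes, frozen at −80 °C overnight and thawed, and growth was read by LDH assay.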

As to `COCC[C@H]([C@@H]1C[C@H]1C(=O)N[C@@H]1CC(C)(C)Oc2cccc(OC(F)(F)F)c21)N1C(=N)NC(C)(C)CC1=O` [Example 107B], for the setting “72 h, Table 3”, the EC50 (commonly the midpoint of the concentration-response curve) is 11 nM. In other words, the double-digit nanomolar range.

The molecule `CCC1(C)CC(NC(=O)[C@@H]2C[C@H]2[C@@H](c2cccnc2)N2C(=N)NC(C)(C)CC2=O)c2ccccc2O1` (single isomer, unassigned) [Example 105D] had an EC50 (Table 3) of 0.9 nM.

In the case of `CCC1(C)C[C@H](NC(=O)[C@@H]2C[C@H]2CN2C(=N)NC(C)(C)CC2=O)c2ccccc2O1` (stereo partly drawn) [Example 78], the concentration for a half-maximal effect (EC50) (72 h, Table 3) is 300 nM.

The molecule `COCC[C@H]([C@@H]1C[C@H]1C(=O)N[C@H]1CC(C)(C)Oc2ccccc21)N1C(=N)N[C@](C)(C(C)C)CC1=O` [Example 20] came in with an EC50 (72 h, Table 3) of 5.3 nM.

On to `COCC[C@H]([C@@H]1C[C@H]1C(=O)N[C@@H]1CC(C)(C)Oc2c(F)cc(F)cc21)N1C(=N)NC(C)(C)CC1=O` [Example 113A], for which the 50% effective concentration (EC50) (72 h, Table 3) was determined as 19 nM.

Under “72 h, Table 3”, `CCC1(CC)CC(=O)N([C@H](CCOC)[C@@H]2C[C@H]2C(=O)N[C@@H]2c3ccccc3OCC2(C)C)C(=N)N1` [Example 19B] returned an EC50 of 4.2 nM.

With `CCC1(CC)CC(=O)N(CC2CC2C(=O)N[C@H]2CCOc3ccccc32)C(=N)N1` (stereo partly drawn) [Example 4C], the EC50 (72 h, Table 3) turned out to be 85 nM.

As for `COCC[C@H]([C@@H]1C[C@H]1C(=O)NC1CC(C)(C(C)C)Oc2ccccc21)N1C(=N)NC(C)(C)CC1=O` (single isomer, unassigned) [Example 80D], the 50% effective concentration (EC50) (Table 3) came to 21 nM. This lies in the double-digit nanomolar range.

As for `CC1(C)CC(=O)N([C@H](c2cccnc2)[C@@H]2C[C@H]2C(=O)NC2CC(C)(C)Oc3cc(F)ccc32)C(=N)N1` (stereo partly drawn) [Example 77A], under “72 h, Table 3”, the EC50 is 1.7 nM.

The molecule `CC(C)C1(C)CC(NC(=O)[C@@H]2C[C@H]2[C@@H](c2cccnc2)N2C(=N)NC(C)(C)CC2=O)c2ccccc2O1` (single isomer, unassigned) [Example 81D] had an EC50 (Table 3) of 1.3 nM.

As to `CC1(C)CC(=O)N(C[C@@H]2C[C@H]2C(=O)N[C@H]2CC(C)(C)Oc3cccc(Cl)c32)C(=N)N1` [Example 119], where the note is “72 h, Table 3”, the 50% effective concentration (EC50) came to 26 nM.

Consider `CC[C@]1(C)CC(=O)N(C(c2cncc(F)c2)[C@@H]2C[C@H]2C(=O)N[C@@H]2c3ccccc3OC(C)(C)C2(C)O)C(=N)N1` (single isomer, unassigned) [Example 103A], for which, where the note is “Table 3”, a half-maximal response (EC50) required 29 nM. This counts as double-digit nanomolar.

`COCC[C@H]([C@@H]1C[C@H]1C(=O)NC1CC(C)(C)Oc2c(Cl)cc(Cl)cc21)N1C(=N)NC(C)(C)CC1=O` (stereo partly drawn) [Example 106A]: a half-maximal effect (72 h, Table 3) (EC50) was put at 7.4 nM.

In the case of `Cc1ccc2c(c1)OC(C)(C)C[C@@H]2NC(=O)[C@@H]1C[C@H]1CN1C(=N)NC(C)(C)CC1=O` [Example 84], for the setting “72 h, Table 3”, the midpoint of the response, the EC50, lay at 289 nM.

Turning to `CCC1(CC)CC(=O)N(C(CC(C)OC)[C@@H]2C[C@H]2C(=O)N[C@H]2CC(C)(C)Oc3ccccc32)C(=N)N1` (single isomer, unassigned) [Example 142A], the 50% effective concentration (EC50) (Table 4 (unit inferred)) stood at 1.9 nM.

In turn, `CCC1(CC)CC(=O)N([C@H](c2cccnc2)[C@@H]2C[C@H]2C(=O)N[C@@H]2c3ccccc3C[C@H]2O)C(=N)N1` [Example 10] came in with an EC50 (72 h, Table 3) of 27 nM.

With `CCC1(CC)CC(=O)N([C@H](CCOC)[C@@H]2C[C@H]2C(=O)N[C@@H]2c3cc(Cl)ccc3OC(C)(C)[C@H]2O)C(=N)N1` [Example 150], the EC50 (72 h, Table 4 (unit inferred)) worked out at 3.9 nM. In other words, the single-digit nanomolar range.

Where the note is “72 h, Table 3”, `CC1(C)CC(=O)N([C@H](c2ccc(C#N)cc2)[C@@H]2C[C@H]2C(=O)N[C@@H]2c3ccccc3OC(C)(C)[C@H]2O)C(=N)N1` [Example 46] gave a concentration giving a half-maximal response (EC50) of 2.5 nM.

Regarding `COc1ccc([C@H]([C@@H]2C[C@H]2C(=O)N[C@H]2CC(C)(C)Oc3ccccc32)N2C(=N)NC(C)(C)CC2=O)cn1` [Example 38], a half-maximal response (72 h, Table 3) (EC50) required 6.5 nM. This EC50 is about 2.6-fold higher than that of the molecule before.

For the setting “72 h, Table 3”, `CC1(C)CC(=O)N(C(c2cccnc2)[C@H]2[C@H](C(=O)N[C@H]3CC(C)(C)Oc4ccccc43)C2(C)C)C(=N)N1` (stereo partly drawn) [Example 49A] registered an EC50 of 20 nM. Against the preceding molecule, the EC50 is about 3.1-fold higher.

With `CC[C@]1(C)CC(=O)N([C@H](CCOC)[C@@H]2C[C@H]2C(=O)N[C@@H]2c3ccccc3OC(C)(C)[C@H]2O)C(=N)N1` [Example 61], a half-maximal effect (72 h, Table 3) (EC50) was put at 6.9 nM.

Regarding `CC1(C)CC(=O)N([C@H](c2cccnc2)[C@@H]2C[C@H]2C(=O)NC2CC(C)(C)Oc3ccc(C(F)(F)F)cc32)C(=N)N1` (single isomer, unassigned) [Example 109A], the concentration giving a half-maximal response (EC50) (Table 3) worked out at 2.3 nM. That is a single-digit nanomolar value.

As to `CCC1(CC)CC(=O)N([C@H](CCOC)[C@@H]2C[C@H]2C(=O)N[C@@H]2CC(C)(C)Oc3ccccc32)C(=N)N1` [Example 141], where the note is “72 h, Table 4 (unit inferred)”, the EC50 turned out to be 4.7 nM.

Where the note is “Table 3”, `COCC[C@H]([C@@H]1C[C@H]1C(=O)NC1CC(C)(C)Oc2cc(F)ccc21)N1C(=N)NC(C)(C)CC1=O` (stereo partly drawn) [Example 76B] had a concentration for a half-maximal effect (EC50) of 15 nM.

For the molecule `CCC1(CC)CC(=O)N([C@@H](c2cccnc2)[C@H]2[C@H](C(=O)N[C@H]3C[C@H](C(F)(F)F)Oc4ccccc43)C2(C)C)C(=N)N1` [Example 44A], the half-maximal effective concentration (EC50) (72 h, Table 3) stood at 8.3 nM.

The molecule `CCC1(CC)CC(=O)N(C[C@@H]2C(C)[C@H]2C(=O)N[C@@H]2c3ccccc3CC2(C)O)C(=N)N1` (single isomer, unassigned) [Example 29A] gave an EC50 (Table 3) of 203 nM.

`CCC1(CC)CC(=O)N(C[C@@H]2C(C)[C@H]2C(=O)N[C@@H]2c3ccccc3OCC2(C)O)C(=N)N1` (single isomer, unassigned) [Example 35B] came in with a concentration giving a half-maximal response (EC50) (Table 3) of 220 nM.

In the case of `CCC1(CC)CC(NC(=O)[C@@H]2C[C@H]2[C@@H](CCOC)N2C(=N)NC(C)(C)CC2=O)c2ccccc2O1` (stereo partly drawn) [Example 92B], the EC50 (Table 3) came out at 7.2 nM.

Consider `CC1(C)CC(=O)N([C@H](c2cccnc2)[C@@H]2C[C@H]2C(=O)N[C@H]2CC(C)(C)Oc3c(C(F)(F)F)ccc(F)c32)C(=N)N1` [Example 115B], for which the midpoint of the response (72 h, Table 3), the EC50, lay at 1 nM. This lies in the single-digit nanomolar range.

For `COCC[C@H]([C@@H]1C[C@H]1C(=O)N[C@@H]1C[C@@H](C(F)(F)F)Oc2ccccc21)N1C(=N)NC(C)(C)CC1=O` [Example 24C], the EC50 (Table 3) was 120 nM.

For `COCC[C@H]([C@@H]1C[C@H]1C(=O)N[C@H]1CC(C)(C)Oc2cc(C)ccc21)N1C(=N)NC(C)(C)CC1=O` [Example 83A], the 50% effective concentration (EC50) (72 h, Table 3) stood at 6.6 nM.

In turn, `CCC1(C)CC(NC(=O)[C@@H]2C[C@H]2[C@@H](CCOC)N2C(=N)NC(C)(C)CC2=O)c2ccccc2O1` (single isomer, unassigned) [Example 75D] yielded an EC50 (Table 3) of 7 nM.

With `COCC[C@H]([C@@H]1C[C@H]1C(=O)N[C@H]1CC(C)(C)Oc2cc(C)c(Cl)cc21)N1C(=N)NC(C)(C)CC1=O` [Example 137B], a half-maximal response (72 h, Table 3) (EC50) required 6.4 nM.

Consider `CCC1(CC)CC(=O)N([C@H](c2cccnc2)[C@@H]2C(C)[C@H]2C(=O)N[C@H]2C[C@H](C(F)(F)F)Oc3ccccc32)C(=N)N1` (stereo partly drawn) [Example 55A], for which the concentration giving a half-maximal response (EC50) (72 h, Table 3) is 0.8 nM.

In the case of `CC[C@]1(C)CC(=O)N([C@H](CCOC)[C@@H]2C[C@H]2C(=O)NC2CC(C)(C)Oc3ccc(F)cc32)C(=N)N1` (single isomer, unassigned) [Example 130A], the EC50 (Table 3) was 0.9 nM.

Under “72 h, Table 3”, `CC1(C)CC(=O)N([C@H](c2cccnc2)[C@@H]2C[C@H]2C(=O)NC2CC(C)(C)Oc3c(Cl)cccc32)C(=N)N1` (stereo partly drawn) [Example 121A] came in with an EC50 of 2.5 nM.

As for `CCC1(CC)CC(=O)N([C@H](CCOC)[C@@H]2C[C@H]2C(=O)N[C@H]2CC(C)(C)Oc3ccc(Cl)cc32)C(=N)N1` [Example 146], the EC50 (72 h, Table 4 (unit inferred)) was 1.1 nM.

`CCC1(CC)CC(=O)N(C[C@H]2C[C@@H]2C(=O)N[C@@H]2c3ccccc3C[C@H]2O)C(=N)N1` [Example 6A]: the EC50 (72 h, Table 3) stood at 188 nM.

Molecule `CC[C@]1(C)CC(=O)N([C@H](CCOC)[C@@H]2C[C@H]2C(=O)NC2CC(C)(C)Oc3ccc(OC(F)(F)F)cc32)C(=N)N1` (stereo partly drawn) [Example 129B] displayed a concentration for a half-maximal effect (EC50) (Table 3) of 2.5 nM. In other words, the single-digit nanomolar range.

In the case of `CCC1(CC)CC(=O)N([C@H](c2cccnc2)[C@@H]2C[C@H]2C(=O)N[C@H]2CC(C)(C)Oc3ccccc32)C(=N)N1` [Example 2, (1R,2R)-2-((S)-(4,4-diethyl-2-imino-6-oxotetrahydropyrimidin-1(2H)-yl)(pyridin-3-yl)methyl)-N—((S)-2,2-dimethylchroman-4-yl)cyclopropanecarboxamide], the concentration giving a half-maximal response (EC50) (72 h, Table 3) stood at 0.9 nM.

Consider `CCC1(CC)CC(=O)N(C[C@@H]2C[C@H]2C(=O)N[C@H]2CCOc3ccccc32)C(=N)N1` [Example 4B], for which, under “72 h, Table 3”, the 50% effective concentration (EC50) amounted to 26 nM.

Where the note is “72 h, Table 3”, `COc1ccc([C@H]([C@@H]2C[C@H]2C(=O)N[C@H]2C[C@H](C(F)(F)F)Oc3ccccc32)N2C(=N)NC(C)(C)CC2=O)cn1` [Example 37] gave an EC50 of 1.2 nM.

In turn, `CCC1(CC)CC(=O)N([C@H](CCOC)[C@@H]2C[C@H]2C(=O)N[C@@H]2CC(C)(C)Oc3ccccc32)C(=N)N1` [Example 1B] displayed a concentration giving a half-maximal response (EC50) (72 h, Table 3) of 250 nM.

`CCC1(CC)CC(=O)N(C[C@@H]2C[C@H]2C(=O)N[C@H]2C[C@H](C(F)(F)F)Oc3ccccc32)C(=N)N1` [Example 8A] came in with an EC50 (72 h, Table 3) of 37 nM.

Take `CCC1(CC)CC(=O)N(C[C@@H]2C(C)[C@H]2C(=O)N[C@H]2CC(C)(C)Oc3ccccc32)C(=N)N1` (single isomer, unassigned) [Example 25A]: a half-maximal response (Table 3) (EC50) required 84 nM.

`CC1(C)CC(=O)N([C@H](c2cncc(Cl)c2)[C@@H]2C[C@H]2C(=O)N[C@@H]2c3ccccc3OC(C)(C)[C@H]2O)C(=N)N1` [Example 59] showed an EC50 (72 h, Table 3) of 3.8 nM.

Under “72 h, Table 3”, `CC1(C)CC(=O)N([C@H](c2cccnc2)[C@@H]2C[C@H]2C(=O)N[C@@H]2CC(C)(C)Oc3c(C(F)(F)F)ccc(F)c32)C(=N)N1` [Example 115A] displayed an EC50 of 6.6 nM.

In turn, `CC1(C)CC(=O)N(C[C@@H]2C[C@H]2C(=O)NC2CC(C)(C)Oc3c(Cl)cc(Cl)cc32)C(=N)N1` (stereo partly drawn) [Example 97A] registered a concentration giving a half-maximal response (EC50) (72 h, Table 3) of 180 nM.

For `CCC1(CC)CC(=O)N([C@H](c2cccnc2)[C@@H]2C(C)[C@H]2C(=O)N[C@H]2CC(C)(C)Oc3ccccc32)C(=N)N1` (stereo partly drawn) [Example 56B], the response (72 h, Table 3) was half-maximal at 0.7 nM (EC50).

Take `CC1(C)CC(=O)N([C@H](c2cccc(C#N)c2)[C@@H]2C[C@H]2C(=O)N[C@H]2CC(C)(C)Oc3ccccc32)C(=N)N1` [Example 50]: the concentration giving a half-maximal response (EC50) (72 h, Table 3) turned out to be 3 nM.

With `CCC1(CC)CC(=O)N(CC2C(C(=O)N[C@H]3CCOc4ccccc43)C2(F)F)C(=N)N1` (stereo partly drawn) [Example 15A], where the note is “72 h, Table 3”, a half-maximal effect (EC50) was put at 240 nM.
